One data set concerns the target CYP1A (Homo sapiens, UniProt P05177). Nature of the data set: Cytochrome P450 inhibition assay, CYP1A. It counts as in vitro ADME. As to the method:
(§1) 1.4.4 Pharmacokinetic and off-target functional assays (Cyprotex)
(§2) Compound 24 was assayed at Cyprotex in functional assays for interference with important off-targets as well as important pharmacokinetic parameters. With the exception of plasma protein binding, a dose-response relationship was studied in order to calculate IC50 values.
(§3) Table S10. Information on in vitro ADMET assays performed at Cyprotex. […]
(§4) An increase in the number of colonies of at least two-fold over baseline (mean + SD of the vehicle control) and a dose response indicate a positive response. An […]
(§5) different from the vehicle control.
(§6) Where indicated, S9 fraction from the livers of Aroclor 1254-treated rats were included in the incubation at a final concentration of 4.5%. A NADPH-regenerating system was also included to ensure a steady supply of reducing equivalents.

Another data set concerns the target T1, CYP2C9 (Homo sapiens, UniProt P11712).
T1 construct: Cyprotex
The experiment in a line: Cytochrome P450 inhibition assay, CYP2C9. To be noted: Metabolic activity. It counts as in vitro ADME. As to the method: as §1, §2, §3, §4, §5, §6

Another data set concerns the target T2, CYP2C19 (Homo sapiens, UniProt P33261).
T2 construct: Cyprotex
Nature of the data set: Cytochrome P450 inhibition assay, CYP2C19. It is filed as in vitro ADME. As to conditions: Metabolic activity. As to the method: as §1, §2, §3, §4, §5, §6

The target of data set [1] is T3, Cav1.2 (L-type) human Ca ion channel (Homo sapiens, UniProt Q13936).
T3 construct: Eurofins CYL8051QP2DR
Nature of the data set: cell-based. As to the method: (§7) 1.4.2 Further functional off-target assays (Eurofins)
Table S8. Compound 24 was further tested in the following functional assays at Eurofins. […]
Cav1.2 (L-type) human Ca ion channel cell based automated patch >30 µM clamp assay (CYL8051QP2DR) […]
(§8) FLIPR Assay expressed in HEK293 cells
(§9) GABAA α5/β3/γ2 ionotropic receptor (human GABRA5, GABRB3, >30 and GABRG2 genes, expressed in HEK293 cells

The target in data set [2] is T4, Nav1.5 human sodium ion channel (Homo sapiens, UniProt Q14524).
T4 construct: Eurofins CYL8004QP2DR
T4 sequence (Q14524 whole entry): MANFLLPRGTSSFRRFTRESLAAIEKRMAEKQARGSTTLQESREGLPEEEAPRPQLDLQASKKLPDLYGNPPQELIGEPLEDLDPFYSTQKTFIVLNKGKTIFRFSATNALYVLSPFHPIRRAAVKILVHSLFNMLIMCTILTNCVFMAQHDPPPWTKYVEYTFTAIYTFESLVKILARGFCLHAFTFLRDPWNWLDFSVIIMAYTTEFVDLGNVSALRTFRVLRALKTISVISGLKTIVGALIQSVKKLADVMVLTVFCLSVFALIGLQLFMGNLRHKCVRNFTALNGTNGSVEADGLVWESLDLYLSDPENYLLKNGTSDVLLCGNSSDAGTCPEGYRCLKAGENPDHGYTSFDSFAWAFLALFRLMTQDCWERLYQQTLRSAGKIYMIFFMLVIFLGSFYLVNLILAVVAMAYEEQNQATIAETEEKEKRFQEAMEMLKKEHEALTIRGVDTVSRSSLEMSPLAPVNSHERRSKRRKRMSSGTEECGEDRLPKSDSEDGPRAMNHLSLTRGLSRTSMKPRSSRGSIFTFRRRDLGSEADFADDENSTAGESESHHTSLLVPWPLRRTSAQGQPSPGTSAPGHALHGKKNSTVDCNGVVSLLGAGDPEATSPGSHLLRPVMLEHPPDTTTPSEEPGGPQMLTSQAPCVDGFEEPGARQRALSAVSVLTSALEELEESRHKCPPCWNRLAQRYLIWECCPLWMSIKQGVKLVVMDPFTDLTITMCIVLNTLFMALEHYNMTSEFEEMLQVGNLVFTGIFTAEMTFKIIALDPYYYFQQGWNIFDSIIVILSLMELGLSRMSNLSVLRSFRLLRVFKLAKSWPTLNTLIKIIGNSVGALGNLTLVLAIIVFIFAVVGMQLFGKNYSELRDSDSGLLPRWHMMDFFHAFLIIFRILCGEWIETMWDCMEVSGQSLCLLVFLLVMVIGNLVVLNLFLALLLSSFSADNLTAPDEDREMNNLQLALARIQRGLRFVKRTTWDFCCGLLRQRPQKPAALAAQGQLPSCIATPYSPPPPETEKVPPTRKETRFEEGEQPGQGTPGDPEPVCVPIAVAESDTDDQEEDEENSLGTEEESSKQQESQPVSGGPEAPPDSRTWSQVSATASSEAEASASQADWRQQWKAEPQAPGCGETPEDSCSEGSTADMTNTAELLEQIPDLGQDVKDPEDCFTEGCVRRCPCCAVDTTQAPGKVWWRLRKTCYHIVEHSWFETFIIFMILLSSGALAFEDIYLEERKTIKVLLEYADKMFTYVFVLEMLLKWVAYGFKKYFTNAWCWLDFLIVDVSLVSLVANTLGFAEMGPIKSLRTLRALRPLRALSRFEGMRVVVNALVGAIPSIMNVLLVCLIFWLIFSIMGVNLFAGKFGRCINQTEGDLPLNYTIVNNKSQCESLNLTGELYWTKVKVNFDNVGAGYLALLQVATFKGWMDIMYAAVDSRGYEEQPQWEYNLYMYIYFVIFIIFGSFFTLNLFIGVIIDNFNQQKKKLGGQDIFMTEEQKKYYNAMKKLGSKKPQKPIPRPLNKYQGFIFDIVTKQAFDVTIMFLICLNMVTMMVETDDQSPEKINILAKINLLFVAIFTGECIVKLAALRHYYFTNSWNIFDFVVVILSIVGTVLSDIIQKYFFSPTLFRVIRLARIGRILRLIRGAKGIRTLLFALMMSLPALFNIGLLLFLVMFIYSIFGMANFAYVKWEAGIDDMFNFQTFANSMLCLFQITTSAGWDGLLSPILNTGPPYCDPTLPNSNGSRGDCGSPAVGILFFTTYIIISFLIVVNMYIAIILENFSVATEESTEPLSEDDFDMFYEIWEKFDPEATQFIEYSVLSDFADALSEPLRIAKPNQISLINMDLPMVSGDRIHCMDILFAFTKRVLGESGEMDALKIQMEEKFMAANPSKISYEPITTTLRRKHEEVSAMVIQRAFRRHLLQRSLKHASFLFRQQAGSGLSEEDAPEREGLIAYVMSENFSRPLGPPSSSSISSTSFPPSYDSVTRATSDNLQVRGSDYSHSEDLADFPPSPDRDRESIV
The experiment in a line: Nav1.5 automated patch clamp CiPA assay (Eurofins). It is filed as cell-based. As to the method: as §7
Table S8. Compound 24 was further tested in the following functional assays at Eurofins.
ASSAY NAME ESTIMATED IC50 [µM] […]
Nav1.5 human sodium ion channel cell based automated patch clamp >30 µM
CiPA assay (CYL8004QP2DR) […]
as §8
GABAA α5/β3/γ2 ionotropic receptor (human GABRA5, GABRB3, >30
and GABRG2 genes, expressed in HEK293 cells

Data set [3] addresses T5, CFTR cystic fibrosis transmembrane conductance regulator (Homo sapiens, UniProt P13569).
T5 construct: host or cells: CHO cells
The experiment in a line: Ion channel profiling at Charles River: CFTR. It counts as cell-based. To be noted: expressed in CHO cells; read-out: ESTIMATED IC50. As to the method:
(§10) 1.4.3 Ion Channel Profiling at Charles River
(§11) Table S9. Compound 24 was tested against the following ion channels at Charles River Laboratories. […]
FASTPatch Assay IK (KCa3.1) calcium-activated potassium channel (human KCNN4 >30 gene) expressed in CHO cells […]
CFTR cystic fibrosis transmembrane conductance regulator (Cl-channel encoded by human CFTR gene) expressed in CHO cells >30 […]
as §8, §9

For a further data set, the target named is T6, P2X4 receptor (Homo sapiens, UniProt Q99571).
T6 construct: host or cells: HEK293 cells
T6 sequence (Q99571 whole entry): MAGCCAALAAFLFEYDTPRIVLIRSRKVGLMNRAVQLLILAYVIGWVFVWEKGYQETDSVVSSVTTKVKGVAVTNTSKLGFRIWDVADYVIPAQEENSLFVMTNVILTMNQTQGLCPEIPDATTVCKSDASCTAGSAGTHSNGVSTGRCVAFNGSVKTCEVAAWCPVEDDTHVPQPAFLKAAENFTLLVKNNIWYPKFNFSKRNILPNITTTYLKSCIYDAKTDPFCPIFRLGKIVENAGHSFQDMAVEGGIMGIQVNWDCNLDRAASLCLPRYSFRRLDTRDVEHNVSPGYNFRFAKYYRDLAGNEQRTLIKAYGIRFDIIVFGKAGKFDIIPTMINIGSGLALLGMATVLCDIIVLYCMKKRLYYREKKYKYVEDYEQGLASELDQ
Nature of the data set: Ion channel profiling at Charles River: P2X4. It is filed as cell-based. As to conditions: expressed in HEK293 cells; read-out: ESTIMATED IC50. As to the method:
as §10, §11, §8, §9
P2X4 receptor (human P2RX4 gene) expressed in HEK293 cells >30 […]
as §4, §5, §6

For a further data set, the target named is T7, TRPC6 channel (Homo sapiens, UniProt Q9Y210).
T7 construct: host or cells: HEK293 cells
Nature of the data set: Ion channel profiling at Charles River: TRPC6. As to conditions: expressed in HEK293 cells; read-out: ESTIMATED IC50. It is filed as cell-based. As to the method: as §10, §11
ScreenPatch Assay Kv1.3 potassium channel (human KCNA3 gene) expressed in CHO […]
as §8
GABAA α5/β3/γ2 ionotropic receptor (human GABRA5, GABRB3, >30 and GABRG2 genes, expressed in HEK293 cells […]
TRPC6 channel (human TRPC6 gene) expressed in HEK293 cells >30 […]
as §4, §5, §6

The next data set deals with BZD (central). Nature of the data set: Cerep panel binding assay. As to conditions: 10 µM, agonist radioligand. As to the method: (§12) 1.4 Safety Pharmacology of Compound 24
(§13) 1.4.1 Cerep panel (Eurofins)
(§14) Compound 24 was further profiled for its off-target interactions against a panel of 44 targets. The
(§15) screening was done by Eurofins Pharma Discovery within the SafetyScreen44 Panel (Cerep, ITEM
(§16) P270). In all assays binding/functional inhibition was determined at 10 µM.
(§17) Table S6. […]

A further data set concerns the target T8, CCK1 (CCKA) (h) (Homo sapiens, UniProt P32238).
T8 construct: Eurofins Pharma Discovery (CRO that ran the assay) SafetyScreen44 Panel (Cerep, ITEM P270)
Nature of the data set: Cerep panel binding assay. As to conditions: agonist radioligand. As to the method: as §12, §13, §14, §15, §16, §17

Data set [4] concerns the target T9, N neuronal alpha4beta2 (h) (Homo sapiens, UniProt P17787+P43681).
T9 construct: Eurofins Pharma Discovery (CRO that ran the assay) SafetyScreen44 Panel (Cerep, ITEM P270)
Nature of the data set: Cerep panel binding assay. As to conditions: agonist radioligand. As to the method:
as §12, §13, §14, §15, §16, §17

Another data set deals with T10, COX-1 (h) (Homo sapiens, UniProt P23219).
T10 construct: Eurofins Pharma Discovery (CRO that ran the assay) SafetyScreen44 Panel (Cerep, ITEM P270)
T10 sequence (P23219 24-599): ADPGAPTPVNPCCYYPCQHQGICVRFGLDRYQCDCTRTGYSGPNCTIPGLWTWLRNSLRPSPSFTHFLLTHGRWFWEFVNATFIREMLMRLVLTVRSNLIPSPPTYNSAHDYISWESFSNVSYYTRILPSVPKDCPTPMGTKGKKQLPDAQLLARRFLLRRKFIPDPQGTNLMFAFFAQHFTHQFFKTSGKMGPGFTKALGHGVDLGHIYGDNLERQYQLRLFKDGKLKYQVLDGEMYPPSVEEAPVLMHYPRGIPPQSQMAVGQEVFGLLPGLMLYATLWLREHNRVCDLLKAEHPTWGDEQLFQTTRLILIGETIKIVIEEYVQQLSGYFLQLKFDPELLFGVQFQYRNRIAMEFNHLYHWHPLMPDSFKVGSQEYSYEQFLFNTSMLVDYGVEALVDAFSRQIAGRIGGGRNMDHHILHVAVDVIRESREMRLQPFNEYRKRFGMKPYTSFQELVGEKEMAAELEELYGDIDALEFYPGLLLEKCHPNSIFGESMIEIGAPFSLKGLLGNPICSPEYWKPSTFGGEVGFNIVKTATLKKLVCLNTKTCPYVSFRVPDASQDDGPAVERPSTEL
Nature of the data set: Cerep panel functional assay. It counts as biochemical. As to the method:
as §12, §13, §14, §15
(§18) P270). In all assays binding/functional inhibition was determined at 10 µM. […]

In a further data set the target is T11, COX-2 (h) (Homo sapiens, UniProt P35354).
T11 construct: Eurofins Pharma Discovery (CRO that ran the assay) SafetyScreen44 Panel (Cerep, ITEM P270)
Nature of the data set: Cerep panel functional assay. It is filed as biochemical. As to the method:
as §12, §13, §14, §15, §18

The target in a further data set is T12, Lck kinase (h) (Homo sapiens, UniProt P06239).
T12 construct: Eurofins Pharma Discovery (CRO that ran the assay) SafetyScreen44 Panel (Cerep, ITEM P270)
The experiment in a line: Cerep panel functional assay. It is filed as biochemical. As to the method: as §12, §13, §14, §15, §18

The target in a further data set is T13, PDE3A (h) (Homo sapiens, UniProt Q14432).
T13 construct: Eurofins Pharma Discovery (CRO that ran the assay) SafetyScreen44 Panel (Cerep, ITEM P270)
Nature of the data set: Cerep panel functional assay. It is filed as biochemical. As to the method:
as §12, §13, §14, §15, §18

Another data set addresses T14, PDE4D2 (h) (Homo sapiens, UniProt Q08499).
T14 construct: Eurofins Pharma Discovery (CRO that ran the assay) SafetyScreen44 Panel (Cerep, ITEM P270)
Nature of the data set: Cerep panel functional assay. It counts as biochemical. As to the method:
as §12, §13, §14, §15, §18

The next data set has as its target T15, acetylcholinesterase (h) (Homo sapiens, UniProt P22303).
T15 construct: Eurofins Pharma Discovery (CRO that ran the assay) SafetyScreen44 Panel (Cerep, ITEM P270)
The experiment in a line: Cerep panel functional assay. It is filed as biochemical. As to the method:
as §12, §13, §14, §15, §18

Data set [5] can be described thus: Kinetic turbidimetric aqueous solubility. As to conditions: PBS buffer, kinetic from dmso stock.
Data set [6] can be described thus: Metabolic stability in mouse liver microsomes (MLM).
Protocol: 1.3.2 Metabolic-Stability Tests in Mouse Liver Microsomes (MLM).
Phase I metabolic stability was evaluated by incubating the compound (1 μM) with 0.5 mg/mL MLM (Corning) and 1 mM NADPH at 37 °C for 0, 5, 10, 15 and 30 min. The enzymatic activity of the MLM was determined by measuring the metabolic stability of Verapamil, Diphenhydramine and Benzydamine (1 μM each).
The half-life (t1/2) was determined by analyzing the concentrations of the compounds at the different time points by HPLC-MS/MS.

Converted amounts (≈) assume the structure as drawn.

T2 sequence (P33261 whole entry): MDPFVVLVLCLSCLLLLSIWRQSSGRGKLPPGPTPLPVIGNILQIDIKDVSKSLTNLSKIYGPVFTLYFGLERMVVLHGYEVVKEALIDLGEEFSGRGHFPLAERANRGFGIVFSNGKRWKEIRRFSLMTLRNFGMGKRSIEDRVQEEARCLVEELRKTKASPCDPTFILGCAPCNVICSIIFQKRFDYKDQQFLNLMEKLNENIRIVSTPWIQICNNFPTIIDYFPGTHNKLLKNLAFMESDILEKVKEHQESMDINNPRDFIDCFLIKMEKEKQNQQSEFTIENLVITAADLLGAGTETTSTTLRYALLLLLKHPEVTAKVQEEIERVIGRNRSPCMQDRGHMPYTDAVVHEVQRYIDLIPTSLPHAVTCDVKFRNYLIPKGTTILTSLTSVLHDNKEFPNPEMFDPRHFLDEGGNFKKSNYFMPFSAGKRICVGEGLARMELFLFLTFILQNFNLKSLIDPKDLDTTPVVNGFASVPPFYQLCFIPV
T15 sequence (P22303 32-614): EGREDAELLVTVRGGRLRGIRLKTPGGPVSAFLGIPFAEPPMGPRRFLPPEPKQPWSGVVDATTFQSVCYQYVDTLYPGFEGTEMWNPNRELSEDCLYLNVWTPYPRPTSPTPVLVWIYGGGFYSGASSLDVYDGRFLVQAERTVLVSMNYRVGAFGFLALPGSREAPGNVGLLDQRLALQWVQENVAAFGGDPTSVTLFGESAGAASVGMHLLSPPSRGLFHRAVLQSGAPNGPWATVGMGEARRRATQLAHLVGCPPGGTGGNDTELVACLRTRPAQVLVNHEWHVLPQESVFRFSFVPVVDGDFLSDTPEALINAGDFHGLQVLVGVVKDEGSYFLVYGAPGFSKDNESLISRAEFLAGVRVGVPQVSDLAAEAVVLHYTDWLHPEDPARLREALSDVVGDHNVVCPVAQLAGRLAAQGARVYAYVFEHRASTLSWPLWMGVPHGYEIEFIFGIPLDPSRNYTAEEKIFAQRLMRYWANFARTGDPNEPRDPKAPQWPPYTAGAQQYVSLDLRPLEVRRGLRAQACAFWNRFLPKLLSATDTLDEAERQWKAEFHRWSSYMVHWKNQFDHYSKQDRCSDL
T8 sequence (P32238 whole entry): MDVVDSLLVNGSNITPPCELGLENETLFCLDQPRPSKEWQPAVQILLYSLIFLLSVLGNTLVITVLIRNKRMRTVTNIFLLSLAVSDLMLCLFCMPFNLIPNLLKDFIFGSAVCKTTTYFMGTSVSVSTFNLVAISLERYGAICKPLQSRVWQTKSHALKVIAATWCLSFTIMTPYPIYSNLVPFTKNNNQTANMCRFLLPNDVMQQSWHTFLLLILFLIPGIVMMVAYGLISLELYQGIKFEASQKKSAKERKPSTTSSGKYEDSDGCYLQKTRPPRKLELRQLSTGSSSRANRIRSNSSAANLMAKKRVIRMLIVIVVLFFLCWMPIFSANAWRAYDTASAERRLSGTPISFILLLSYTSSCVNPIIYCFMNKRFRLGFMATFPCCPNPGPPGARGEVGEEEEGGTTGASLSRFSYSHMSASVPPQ
T1 sequence (P11712 whole entry): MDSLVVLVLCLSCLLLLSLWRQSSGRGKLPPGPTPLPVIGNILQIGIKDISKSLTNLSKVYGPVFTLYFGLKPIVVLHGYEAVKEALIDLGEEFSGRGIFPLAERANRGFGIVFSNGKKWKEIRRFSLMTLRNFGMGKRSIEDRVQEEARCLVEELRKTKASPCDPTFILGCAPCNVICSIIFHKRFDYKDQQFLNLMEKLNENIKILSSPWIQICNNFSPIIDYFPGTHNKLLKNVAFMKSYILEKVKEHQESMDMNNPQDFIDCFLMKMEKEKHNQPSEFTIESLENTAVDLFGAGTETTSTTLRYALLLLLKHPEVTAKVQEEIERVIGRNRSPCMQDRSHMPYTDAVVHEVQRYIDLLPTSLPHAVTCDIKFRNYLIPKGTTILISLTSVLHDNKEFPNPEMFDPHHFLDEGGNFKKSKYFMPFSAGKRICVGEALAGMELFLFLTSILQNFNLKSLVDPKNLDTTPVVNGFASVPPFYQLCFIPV

By IC50 is commonly meant the concentration needed to halve the response being measured. For orientation: inhibition means the change of the read-out against control, counted positive when it falls. What is called kinetic solubility is the concentration staying in solution when a stock, usually in DMSO, is diluted into the medium. A word on the half-life: it is the time needed for the level to fall by half in the phase considered. Higher therefore signals slow decline. Regarding `CC(C)Oc1ccc(-c2ncc(CNc3ccnc(C(F)(F)F)c3)cn2)cc1Cl` [Compound 24], the half-inhibitory concentration (IC50) was greater than 25 µM at CYP1A; greater than 25 µM at CYP2C9; greater than 25 µM at CYP2C19; greater than 30 µM in [1]; greater than 30 µM in [2]; greater than 30 µM in data set [3]. Further, the half-maximal inhibitory concentration (IC50) on P2X4 receptor and at TRPC6 channel was greater than 30 µM throughout. Besides, the “BINDING (%)” value in the data set with BZD (central) is recorded as “–27.1%”. In addition, the inhibition at 10 µM on CCK1 (CCKA) (h) was -12%; in data set [4], -4.7%; against COX-1 (h), 8.8%; on COX-2 (h) it was 19.1%; against Lck kinase (h) it was -6.8%; on PDE3A (h), 0.3%. Moreover, the inhibition at 10 µM on PDE4D2 (h) was 6.7%; on acetylcholinesterase (h), -1.9%. The solubility (kinetic) at 5 min in data set [5] is 47.2 µM (≈ 20 µg/mL). The same molecule gave a half-life at 1 μM in data set [6] of 19 min.

These data come from paper PMC9929129, “Towards Translation of PqsR Inverse Agonists: From In Vitro Efficacy Optimization to In Vivo Proof‐of‐Principle” (Advanced Science, 2023).
